How the values were obtained:
[1] = aqueous solubility as a function of pH; assay type: physicochemical
[2] = solubility in substituted-β-cyclodextrin solution as a function of pH; assay type: physicochemical
[3] = aqueous buffer, neutral form / free base, room temperature, pH 6.8

Row | solubility [1, 3] [µg/mL] | solubility ([1]; simulated gastric fluid, hydrochloride salt, normal gastric pH condition, pH of gastric medium ~1-2) [µg/mL] | solubility in the substituted-β-cyclodextrins ([2]; pH 4.5 versus higher pH's up to 11) | solubility in substituted-β-cyclodextrin solution ([2]; pH lowered to between about 3 and about 4) | Structure (SMILES) | solubility on adjusting pH ([1]; pH adjusted within pH 3-11, needed level e.g. 2.5 mg/mL)
1 | < 1 |  |  |  | COc1ccc(-n2nc(C(N)=O)c3c2C(=O)N(c2ccc(N4CCCCC4=O)cc2)CC3)cc1 [Apixaban, 1-(4-methoxyphenyl)-7-oxo-6-[4-(2-oxo-1-piperidinyl)phenyl]-4,5,6,7-tetrahydro-1H-pyrazolo [3,4-c]pyridine-3-carboxamide] | 
2 | < 1 | ~3000 | same solubility | increase in solubility | CN(C)Cc1nccn1-c1ccc(NC(=O)c2cc(C(F)(F)F)nn2-c2ccc3onc(N)c3c2)c(F)c1.Cl [razaxaban] | could not be increased to the needed level

Reference: US20090291913A1, “FACTOR Xa INHIBITOR FORMULATION AND METHOD” (Bristol-Myers Squibb Company, priority 2005, published 2009)
